Data: patent US4987131A, “4H-triazolo[4,3-a][1,4]benzodiazepines” (Roussel Uclaf, priority 1985, dated 1991)

Columns and labels:
[1] = tested on: stretchings induced by acetic acid in mice; assay: Analgesic activity: stretchings induced by acetic acid; assay type: in vivo; conditions: Mus musculus, po, 0.25 h, orally half an hour before i.p. acetic acid 100 mg/kg, observation 15 minutes, read-out: DA50, dose giving a decrease of 50% in the number of stretchings
Experimental: B. Study of analgesic activity
The test used was stretchings induced by acetic acid described by R. Koster et al [Fed. Proc. 1959, 1B 412] according to which the intraperitoneal injection of acetic acid induces in mice repeated stretchings and torsional movements which can persist for more than 6 hours. Analgesics prevent or decrease this syndrome which can considered as the externalization of a diffuse abdominal pain. The acetic acid was administered at a dose of 100 mg/kg or 1 ml of a 1% aqueous solution per 100 g of body weight and the compound of Example 1 was orally administered half an hour before the injection of acetic acid, the mice having been without food for 7 hours. The stretchings were observed and counted for each mouse for a period of observation of 15 minutes and the results were expressed as active dose 50 which is the dose which enabled a decrease of 50% to be obtained in the number of stretchings in comparison with the control animals. The DA50 found was 4 mg/kg.

[2] = target: T1, cyclo-oxygenase contained in a microsomal preparation of seminal vesicles of a bull (Bos taurus, UniProt O62664); assay: Action on biosynthesis of prostaglandins in vitro; assay type: biochemical; conditions: arachidonic acid 15×10^-6 M, incubated 30 minutes at 37° C., radioimmuno test; read-out: CI50, inhibiting activity calculated on the sum of PGE2 and PGF2 alpha
T1 construct: cyclo-oxygenase contained in a microsomal preparation of seminal vesicles of a bull; from tissue; host or cells: bull seminal vesicles, microsomal preparation
T1 sequence (O62664 25-600): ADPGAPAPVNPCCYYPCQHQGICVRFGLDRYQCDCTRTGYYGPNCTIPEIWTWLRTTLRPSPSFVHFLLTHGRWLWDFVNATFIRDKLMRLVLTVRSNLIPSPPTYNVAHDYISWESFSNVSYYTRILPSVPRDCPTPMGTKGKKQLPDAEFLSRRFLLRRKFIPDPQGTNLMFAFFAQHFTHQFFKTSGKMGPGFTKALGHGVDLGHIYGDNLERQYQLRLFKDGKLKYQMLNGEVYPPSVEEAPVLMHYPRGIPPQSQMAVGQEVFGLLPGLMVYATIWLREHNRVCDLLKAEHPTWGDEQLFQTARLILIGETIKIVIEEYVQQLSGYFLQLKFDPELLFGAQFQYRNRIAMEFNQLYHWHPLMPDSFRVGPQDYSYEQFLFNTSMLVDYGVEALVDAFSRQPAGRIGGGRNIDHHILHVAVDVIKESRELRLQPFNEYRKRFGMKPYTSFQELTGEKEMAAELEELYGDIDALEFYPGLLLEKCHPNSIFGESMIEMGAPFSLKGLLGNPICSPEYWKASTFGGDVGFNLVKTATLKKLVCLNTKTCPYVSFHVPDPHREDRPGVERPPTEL
Experimental: A. Action on biosynthesis of prostaglandins in vitro.
Arachidonic acid is converted into prostaglandins (PGs) of series 2 by a cyclo-oxygenase contained in a microsomal preparation of seminal vesicles of a bull carried out according to the Tagekuchi et al method [Mechanism of prostaglandin biosynthesis. I characterization and essay of bovine prostaglandin synthetase. Biochemistry, 1971, 10, 2372]. The precursor, at […] of 15×10^-6 M, was incubated for 30 minutes at 37° C. in the presence of a fixed concentration in proteins of the preparation of seminal vesicles and of the product of Example 1. After blocking the reaction by immersion in boiling water for one minute, then centrifuging, the prostaglandins were evaluated by radioimmuno test inspired by that of Dray et al [Radioimmunoessay of prostaglandins F, E1 and E2 in human plasma. European J. Clin. Invest., 1975 5, 311]. This enabled the PGE2 and PGF2 alpha to be evaluated specifically and the inhibiting activity of the product (CI50) is calculated on the sum of these two prostaglandins. The CI50 found was 2×10^ -6 M.

[3] = tested on: arthritis induced by carrageenin in rats; assay: Anti-inflammatory activity: arthritis induced by carrageenin; assay type: in vivo; conditions: Rattus norvegicus, po; male rats, orally, simultaneously with carrageenin in the tibio-tarsal articulation, paw volume; read-out: DA50, dose giving a decrease in the oedema of 50%
Experimental: C. Anti-inflammatory activity was determined by the test for arthritis induced by carrageenin in rats and 0.5 ml of a sterile suspension at 1% of carrageenin was administered in the tibio-tarsal articulation of a back paw in male rats weighing from 130 to 150 g. Simultaneously, the product of Example 1 was orally administered in a suspension of carboxymethylcellulose at 0.25% and of Tween at 0.02%. The volume of the paw was measured before the administration, then 2 hours, 4 hours, 6 hours, 8 hours and 24 hours afterwards. The intensity of the inflammation was at its highest 4 to 6 hours after the injection of carrageenin and the difference in volume of the paws of the treated animals and the control animals was evidence of the anti-inflammatory action of the medicament. The DA50 was determined, which was the dose which enabled a decrease in the oedema of 50% to be obtained.

COc1ccc(-c2nnc3n2-c2ccccc2C(C)=NC3C)cc1 (stereo not drawn) [Example 1, 4,6-dimethyl-1-(4-methoxyphenyl)-4H-1,2,4-triazolo[4,3-a][1,4]benzodiazepine]
ED50 [1]: 4 mg/kg
IC50 [2]: 2 µM
ED50 [3]: 50 mg/kg
